Test results published in ChEMBL document CHEMBL4043152, “Design, synthesis, and cytotoxic activity of novel 7-substituted camptothecin derivatives incorporating piperazinyl-sulfonylamidine moieties” (Bioorg Med Chem Lett, 2017).

Legend:
Assay type in all cases: functional, cell-based
MCF7 = assay: Cytotoxicity against human MCF7 cells after 72 hrs by SRB assay; details: MCF7, 72 h
A549 = assay: Cytotoxicity against human A549 cells after 72 hrs by SRB assay; details: A549, 72 h
[1] = Cytotoxicity against human KBVIN cells after 72 hrs by SRB assay
KB = assay: Cytotoxicity against human KB cells after 72 hrs by SRB assay
MDA-MB-231 = assay: Cytotoxicity against human MDA-MB-231 cells after 72 hrs by SRB assay; details: MDA-MB-231, 72 h

Row | SMILES | IC50 (MCF7) [nM] | IC50 (A549) [nM] | IC50 [1] [nM] | IC50 (KB) [nM] | IC50 (MDA-MB-231) [nM]
1 | CCc1c2c(nc3ccc(OC(=O)N4CCC(N5CCCCC5)CC4)cc13)-c1cc3c(c(=O)n1C2)COC(=O)[C@]3(O)CC [IRINOTECAN] | 11300 | 8310 | > 20000 | – | –
2 | CC[C@@]1(O)C(=O)OCc2c1cc1n(c2=O)Cc2c-1nc1ccccc1c2CN1CCN(/C(Cc2ccc(OC)cc2)=N\S(=O)(=O)CC)CC1 | 2900 | 710 | 2730 | 470 | 3810
3 | CC[C@@]1(O)C(=O)OCc2c1cc1n(c2=O)Cc2c-1nc1ccccc1c2CN1CCN(/C(Cc2ccccc2)=N\S(=O)(=O)c2ccc(Cl)cc2)CC1 | 3190 | 640 | 1550 | 740 | 5010
4 | CC[C@@]1(O)C(=O)OCc2c1cc1n(c2=O)Cc2c-1nc1ccccc1c2CN1CCN(/C(Cc2ccc(F)cc2)=N\S(=O)(=O)c2ccc(C)cc2)CC1 | 7040 | 1770 | 2770 | 1070 | 6010
5 | CC[C@@]1(O)C(=O)OCc2c1cc1n(c2=O)Cc2c-1nc1ccccc1c2CN1CCN(/C(Cc2ccccc2)=N\S(=O)(=O)c2cccs2)CC1 | 1250 | 650 | 1270 | 590 | 3990
6 | CC[C@@]1(O)C(=O)OCc2c1cc1n(c2=O)Cc2c-1nc1ccccc1c2CN1CCN(/C(Cc2ccc(F)cc2)=N\S(=O)(=O)c2ccc([N+](=O)[O-])cc2)CC1 | 2180 | 630 | 850 | 4430 | 3540
7 | CC[C@@]1(O)C(=O)OCc2c1cc1n(c2=O)Cc2c-1nc1ccccc1c2CN1CCN(/C(Cc2ccc(F)cc2)=N\S(=O)(=O)c2ccc(F)cc2)CC1 | 8850 | 4310 | 1810 | 10100 | 10200
8 | CC[C@@]1(O)C(=O)OCc2c1cc1n(c2=O)Cc2c-1nc1ccccc1c2CN1CCN(/C(Cc2ccccc2)=N\S(=O)(=O)c2ccccc2)CC1 | 2250 | 650 | 1770 | 630 | 4410
9 | CC[C@@]1(O)C(=O)OCc2c1cc1n(c2=O)Cc2c-1nc1ccccc1c2CN1CCN(/C(Cc2ccccc2)=N\S(=O)(=O)c2ccc3ccccc3c2)CC1 | 9370 | 3150 | 890 | 2110 | 11300
10 | CC[C@@]1(O)C(=O)OCc2c1cc1n(c2=O)Cc2c-1nc1ccccc1c2CN1CCN(/C(Cc2ccc(OC)cc2)=N\S(=O)(=O)c2ccc3ccccc3c2)CC1 | 6560 | 740 | 3660 | 840 | 9360
11 | CC[C@@]1(O)C(=O)OCc2c1cc1n(c2=O)Cc2c-1nc1ccccc1c2CN1CCN(/C(Cc2ccc(F)cc2)=N\S(=O)(=O)c2ccc3ccccc3c2)CC1 | 4740 | 600 | 380 | 4720 | 5410
12 | CC[C@@]1(O)C(=O)OCc2c1cc1n(c2=O)Cc2c-1nc1ccccc1c2CN1CCN(/C(Cc2ccc(OC)cc2)=N\S(=O)(=O)c2ccc(C)cc2)CC1 | 5670 | 740 | 3080 | 830 | 5840
13 | CC[C@@]1(O)C(=O)OCc2c1cc1n(c2=O)Cc2c-1nc1ccccc1c2CN1CCN(/C(Cc2ccc(OC)cc2)=N\S(=O)(=O)c2cccnc2)CC1 | 4220 | 800 | 2380 | 880 | 4960
14 | CC[C@@]1(O)C(=O)OCc2c1cc1n(c2=O)Cc2c-1nc1ccccc1c2CN1CCN(/C(Cc2ccccc2)=N\S(=O)(=O)c2cccnc2)CC1 | 3400 | 760 | 2090 | 720 | 3840
15 | CC[C@@]1(O)C(=O)OCc2c1cc1n(c2=O)Cc2c-1nc1ccccc1c2CN1CCN(/C(Cc2ccccc2)=N\S(C)(=O)=O)CC1 | 1590 | 650 | 3820 | 130 | 1570
16 | CC[C@@]1(O)C(=O)OCc2c1cc1n(c2=O)Cc2c-1nc1ccccc1c2CN1CCN(/C(Cc2ccccc2)=N\S(=O)(=O)CC)CC1 | 1900 | 730 | 4290 | 490 | 3500
17 | CC[C@@]1(O)C(=O)OCc2c1cc1n(c2=O)Cc2c-1nc1ccccc1c2CN1CCN(/C(Cc2ccc(F)cc2)=N\S(=O)(=O)CC)CC1 | 1600 | 500 | 970 | 330 | 2510
18 | CC[C@@]1(O)C(=O)OCc2c1cc1n(c2=O)Cc2c-1nc1ccccc1c2CN1CCN(/C(Cc2ccc(OC)cc2)=N\S(=O)(=O)c2ccc([N+](=O)[O-])cc2)CC1 | 8360 | 2930 | 970 | 1060 | 9750
19 | CC[C@@]1(O)C(=O)OCc2c1cc1n(c2=O)Cc2c-1nc1ccccc1c2CN1CCN(/C(Cc2ccc(F)cc2)=N\S(=O)(=O)c2cccnc2)CC1 | 6050 | 2590 | 5820 | 6760 | 6310
20 | CC[C@@]1(O)C(=O)OCc2c1cc1n(c2=O)Cc2cc3c(CN(C)C)c(O)ccc3nc2-1 [TOPOTECAN] | 280 | 110 | 660 | – | –
